Values of other authors in patent US20060003004A1 (Collegium Pharmaceutical, Inc., priority 2002, published 2006).
Read-outs that look alike come from different tables or passages of the source. Marks after values point to notes of the source that are not given here.

Experiments:
[1] = 40-120 mg/day, 1032 patients
[2] = for Participants who failed the dose escalation: escalation to 200 mg daily
uptake of dopamine = uptake of dopamine (Homo sapiens, UniProt Q01959)
[3] = intravenous, 10 patients
[4] = tested on: beta adrenergic receptors
[5] = tested on: alpha adrenergic receptors
[6] = not given; remark: listed apart in the source
[7] = not given; remark: listed apart in the source
[8] = tested on: beta adrenoceptors in rat cortex; conditions: after chronic administration
[9] = Phase 2 and Phase 3 depression studies
[10] = n=1,033
[11] = 100 mg/day twice daily, N = 1871
[12] = 200 mg/day twice daily, N = 865

Sequence of uptake of dopamine (Q01959 whole entry): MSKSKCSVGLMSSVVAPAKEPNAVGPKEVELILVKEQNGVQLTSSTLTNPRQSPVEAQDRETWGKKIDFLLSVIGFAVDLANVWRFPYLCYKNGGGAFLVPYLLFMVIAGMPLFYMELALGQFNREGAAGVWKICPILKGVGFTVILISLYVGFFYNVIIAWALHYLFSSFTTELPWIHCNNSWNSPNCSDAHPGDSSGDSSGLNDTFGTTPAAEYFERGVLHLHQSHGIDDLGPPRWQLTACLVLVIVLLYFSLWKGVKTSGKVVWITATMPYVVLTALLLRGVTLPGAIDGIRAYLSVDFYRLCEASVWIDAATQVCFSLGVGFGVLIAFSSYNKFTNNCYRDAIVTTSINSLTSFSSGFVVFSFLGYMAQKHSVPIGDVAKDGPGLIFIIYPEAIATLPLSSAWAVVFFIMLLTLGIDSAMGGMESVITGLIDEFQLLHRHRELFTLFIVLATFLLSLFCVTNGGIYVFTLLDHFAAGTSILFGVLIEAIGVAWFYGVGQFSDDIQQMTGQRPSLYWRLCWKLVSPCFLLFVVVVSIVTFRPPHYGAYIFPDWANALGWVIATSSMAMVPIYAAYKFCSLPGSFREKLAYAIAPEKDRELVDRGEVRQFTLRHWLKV

SMILES: CNCC[C@H](Oc1cccc2ccccc12)c1cccs1 [duloxetine]
- Rate of adverse events nausea, dry mouth, fatigue, dizziness, constipation, somnolence, decreased appetite, and sweating [1]: more than 5%

SMILES: CCN(CC)C(=O)C1(c2ccccc2)CC1CN (stereo not shown) [milnacipran, Milnacipran]
- Global pain score, mean value ([2]; 1-7 scale (1 very much improved, 4 unchanged, 7 very much worse), FMS patients who reached endpoint, placebo 4.3, p=0.0001): 2.3
- Participants who failed the dose escalation ([2]; BID-IR group): 6%
- Participants who failed the dose escalation ([2]; QD-IR group): 19%
- Effect on uptake of dopamine (uptake of dopamine): does not affect
- Parent drug eliminated unchanged via the kidneys (humans): 90%
- half-life (humans): approximately 8 hours
- Time within which oral doses are absorbed and distributed in the body (oral doses): 1 to 2 h
- Metabolites as share of the concentration of the parent drug (ten metabolites formed in the liver): about 10%
- Patients reporting transient nausea [3]: five of them reported transient nausea
- Affinity for beta adrenergic receptors [4]: no affinity
- Affinity for alpha adrenergic receptors [5]: no affinity
- Adverse events: headache ([6]; 100 mg/day twice daily): 9%
- Adverse events: abdominal pain ([6]; 200 mg/day twice daily): 7%
- Adverse events: headache ([6]; 200 mg/day twice daily): 8%
- Adverse events: nausea and vomiting ([6]; 200 mg/day twice daily): 7%
- Affinity for dopaminergic receptors (dopaminergic receptors): no affinity
- Affinity for muscarinic receptors (muscarinic receptors): no affinity
- Frequency of Adverse Experiences: Abdominal Pain ([7]; 50 mg/day twice daily, N = 426): 6.1%
- Frequency of Adverse Experiences: Agitation ([7]; 50 mg/day twice daily, N = 426): 1.6%
- Frequency of Adverse Experiences: Anxiety ([7]; 50 mg/day twice daily, N = 426): 2.8%
- Frequency of Adverse Experiences: Dry mouth ([7]; 50 mg/day twice daily, N = 426): 9.4%
- Frequency of Adverse Experiences: Dyspepsia ([7]; 50 mg/day twice daily, N = 426): 3.5%
- Frequency of Adverse Experiences: Dysuria ([7]; 50 mg/day twice daily, N = 426): 1.4%
- Frequency of Adverse Experiences: Fatigue ([7]; 50 mg/day twice daily, N = 426): 2.8%
- Frequency of Adverse Experiences: Headache ([7]; 50 mg/day twice daily, N = 426): 14.6%
- Frequency of Adverse Experiences: Hot flushes ([7]; 50 mg/day twice daily, N = 426): 1.6%
- Frequency of Adverse Experiences: Increased Sweating ([7]; 50 mg/day twice daily, N = 426): 14.0%
- Frequency of Adverse Experiences: Insomnia ([7]; 50 mg/day twice daily, N = 426): 9.2%
- Frequency of Adverse Experiences: Nausea ([7]; 50 mg/day twice daily, N = 426): 12.7%
- Frequency of Adverse Experiences: Nervousness ([7]; 50 mg/day twice daily, N = 426): 4.2%
- Frequency of Adverse Experiences: Palpitations ([7]; 50 mg/day twice daily, N = 426): 2.3%
- Frequency of Adverse Experiences: Somnolence ([7]; 50 mg/day twice daily, N = 426): 5.4%
- Frequency of Adverse Experiences: Tremor ([7]; 50 mg/day twice daily, N = 426): 0.9%
- Frequency of Adverse Experiences: Vertigo ([7]; 50 mg/day twice daily, N = 426): 1.6%
- Frequency of Adverse Experiences: Vomiting ([7]; 50 mg/day twice daily, N = 426): 3.8%
- Frequency of Adverse Experiences: Agitation [7, 11]: 3.3%
- Frequency of Adverse Experiences: Anxiety [7, 11]: 4.1%
- Frequency of Adverse Experiences: Dry mouth [7, 11]: 7.9%
- Frequency of Adverse Experiences: Dyspepsia [7, 11]: 2.1%
- Frequency of Adverse Experiences: Dysuria [7, 11]: 2.1* %
- Frequency of Adverse Experiences: Fatigue [7, 11]: 2.5%
- Frequency of Adverse Experiences: Headache [7, 11]: 8.4%
- Frequency of Adverse Experiences: Hot flushes [7, 11]: 3.0%
- Frequency of Adverse Experiences: Increased Sweating [7, 11]: 4.3* %
- Frequency of Adverse Experiences: Insomnia [7, 11]: 6.1%
- Frequency of Adverse Experiences: Nausea [7, 11]: 11.2%
- Frequency of Adverse Experiences: Nervousness [7, 11]: 2.0%
- Frequency of Adverse Experiences: Palpitations [7, 11]: 2.7%
- Frequency of Adverse Experiences: Somnolence [7, 11]: 2.3%
- Frequency of Adverse Experiences: Tremor [7, 11]: 2.5%
- Frequency of Adverse Experiences: Vertigo [7, 11]: 5.0%
- Frequency of Adverse Experiences: Vomiting [7, 11]: 3.9%
- Frequency of Adverse Experiences: Abdominal Pain [7, 12]: 7.6%
- Frequency of Adverse Experiences: Agitation [7, 12]: 2.9%
- Frequency of Adverse Experiences: Anxiety [7, 12]: 5.1%
- Frequency of Adverse Experiences: Dry mouth [7, 12]: 9.0%
- Frequency of Adverse Experiences: Dyspepsia [7, 12]: 2.2%
- Frequency of Adverse Experiences: Dysuria [7, 12]: 3.7* %
- Frequency of Adverse Experiences: Fatigue [7, 12]: 4.4%
- Frequency of Adverse Experiences: Headache [7, 12]: 13.5%
- Frequency of Adverse Experiences: Hot flushes [7, 12]: 3.6%
- Frequency of Adverse Experiences: Increased Sweating [7, 12]: 11.6* %
- Frequency of Adverse Experiences: Insomnia [7, 12]: 11.3%
- Frequency of Adverse Experiences: Nausea [7, 12]: 19.4* %
- Frequency of Adverse Experiences: Nervousness [7, 12]: 2.8%
- Frequency of Adverse Experiences: Palpitations [7, 12]: 4.6%
- Frequency of Adverse Experiences: Somnolence [7, 12]: 3.5%
- Frequency of Adverse Experiences: Tremor [7, 12]: 6.7* %
- Frequency of Adverse Experiences: Vertigo [7, 12]: 4.5%
- Frequency of Adverse Experiences: Vomiting [7, 12]: 7.9* %
- Effect on number of beta adrenoceptors in rat cortex [8]: does not affect
- Affinity for histaminergic receptors (histaminergic receptors): no affinity

SMILES: COc1ccc(C(CN(C)C)C2(O)CCCCC2)cc1 (stereo not shown) [venlafaxine]
- Patients who discontinued treatment that did so due to nausea [9]: ~32%
- Adverse experience incidence: anorexia [10]: 11%
- Adverse experience incidence: anxiety [10]: 6%
- Adverse experience incidence: constipation [10]: 15%
- Adverse experience incidence: dizziness [10]: 19%
- Adverse experience incidence: dry mouth [10]: 22%
- Adverse experience incidence: insomnia [10]: 18%
- Adverse experience incidence: nausea [10]: 37%
- Adverse experience incidence: nervousness [10]: 13%
- Adverse experience incidence: somnolence [10]: 23%
- Adverse experience incidence: tremor [10]: 5%
- Adverse experience incidence: vomiting [10]: 6%
